Measured values published in patent US20260306644A1, “ANTIBODY RECRUITING MOLECULES FOR THE TREATMENT OF CORONAVIRUS DISEASE-19” (priority 2023, published 2026).
Like-named read-outs stand apart in the source and are kept apart here. Positions of bridges follow the written chain, without caps; N, C: chain ends. Non-standard residues stand in square brackets, D forms with d. Residues, ends and D or L forms follow the SMILES beside them. ξ: configuration not given here. ξIle = CC[C@H](C)C(N)C(=O)O

Target: T1, SARS-CoV-2 Spike A (wild-type) (Severe acute respiratory syndrome coronavirus 2, UniProt P0DTC2)
T1 construct: purchased Meso Scale Diagnostics, LLC V-PLEX SARS-CoV-2 Panel 13 (ACE2) Kit / Panel 23 (ACE2) Kit
Assay: MSD ACE2 competition assay (inhibition of Spike binding with ACE2, ECL), A (wild-type)

[1] = IC50 Wild Type, Wild Type Spike

Compound | IC50 [1] | IC50 (read-out: IC50 Wild Type, Wild Type Spike)
CC[C@H](C)[C@H](NC(=O)[C@H](CC(C)C)NC(=O)[C@H](CC(=O)O)NC(=O)[C@H](CO)NC(=O)[C@@H](NC(=O)[C@H](CCCNC(=N)N)NC(=O)[C@H](CCSC)NC(=O)[C@H](CO)NC(=O)[C@H](C)NC(=O)[C@H](CCC(=O)O)NC(=O)[C@H](C)NC(=O)[C@H](Cc1c[nH]cn1)NC(=O)CNC(=O)[C@H](CC(C)C)NC(=O)[C@H](CCC(=O)O)NC(=O)[C@H](CC(=O)O)NC(=O)[C@H](CC(C)C)NC(=O)[C@H](CC(C)C)NC(=O)[C@H](CCCNC(=N)N)NC(=O)[C@H](CCSC)NC(=O)[C@@H](NC(=O)[C@H](CCC(=O)O)NC(=O)[C@H](Cc1ccc(O)cc1)NC(=O)[C@@H](NC(=O)[C@H](CCCCN)NC(=O)[C@H](CCC(N)=O)NC(=O)[C@H](CC(C)C)NC(=O)[C@@H](NC(=O)[C@H](Cc1c[nH]c2ccccc12)NC(=O)[C@H](CCC(=O)O)NC(=O)[C@H](CCCCN)NC(=O)[C@@H](N)CC(=O)O)[C@@H](C)CC)[C@@H](C)CC)[C@@H](C)CC)C(C)C)C(=O)N[C@@H](Cc1ccc(O)cc1)C(=O)N[C@@H](CCC(=O)O)C(=O)N[C@@H](Cc1ccccc1)C(=O)N[C@@H](CCSC)C(=O)N[C@@H](CCCCN)C(=O)N[C@@H](CCCCN)C(=O)NCC(=O)O [Compound 102] | 5.96 nM | –
CC[C@H](C)[C@H](NC(=O)[C@H](CC(C)C)NC(=O)[C@H](CC(=O)O)NC(=O)[C@H](CO)NC(=O)[C@@H](NC(=O)[C@H](CCCNC(=N)N)NC(=O)[C@H](CCSC)NC(=O)[C@H](CO)NC(=O)[C@H](C)NC(=O)[C@H](CCC(=O)O)NC(=O)[C@H](C)NC(=O)[C@H](Cc1c[nH]cn1)NC(=O)CNC(=O)[C@H](CC(C)C)NC(=O)[C@H](CCC(=O)O)NC(=O)[C@H](CC(=O)O)NC(=O)[C@H](CC(C)C)NC(=O)[C@H](CC(C)C)NC(=O)[C@H](CCCNC(=N)N)NC(=O)[C@H](CCSC)NC(=O)[C@@H](NC(=O)[C@H](CCC(=O)O)NC(=O)[C@H](Cc1ccc(O)cc1)NC(=O)[C@@H](NC(=O)[C@H](CCCCN)NC(=O)[C@H](CCC(N)=O)NC(=O)[C@H](CC(C)C)NC(=O)[C@@H](NC(=O)[C@H](Cc1c[nH]c2ccccc12)NC(=O)[C@H](CCC(=O)O)NC(=O)[C@H](CCCCN)NC(=O)[C@H](CC(=O)O)NC(C)=O)[C@@H](C)CC)[C@@H](C)CC)[C@@H](C)CC)C(C)C)C(=O)N[C@@H](Cc1ccc(O)cc1)C(=O)N[C@@H](CCC(=O)O)C(=O)N[C@@H](Cc1ccccc1)C(=O)N[C@@H](CCSC)C(=O)N[C@@H](CCCCN)C(=O)N[C@@H](CCCCN)C(=O)N[C@@H](CC(=O)O)C(=O)N[C@H]1CSSC[C@@H](C(=O)N[C@H](C(=O)O)[C@@H](C)O)NC(=O)[C@H](Cc2c[nH]c3ccccc23)NC(=O)[C@H](C(C)C)NC(=O)[C@H](CC(C)C)NC(=O)[C@H](CCC(=O)O)NC(=O)CNC(=O)[C@H](CC(C)C)NC(=O)[C@H](Cc2c[nH]cn2)NC(=O)[C@H](Cc2c[nH]c3ccccc23)NC(=O)[C@H](C)NC1=O [Compound 114] | 40.7 nM | –
CC[C@H](C)[C@H](NC(=O)[C@H](CCCCN)NC(=O)[C@H](CCC(N)=O)NC(C)=O)C(=O)N[C@@H](Cc1ccc(O)cc1)C(=O)N[C@@H](CCC(=O)O)C(=O)N[C@H](C(=O)N[C@H]1CSSC[C@@H](C(=O)N[C@@H](CO)C(=O)N[C@@H](CC(=O)O)C(=O)N[C@@H](CC(C)C)C(=O)N[C@H](C(=O)N[C@@H](Cc2ccc(O)cc2)C(=O)N[C@@H](CCC(=O)O)C(=O)N[C@@H](Cc2ccccc2)C(=O)N[C@@H](CCSC)C(=O)N[C@@H](CCCCN)C(=O)N[C@@H](CCCCN)C(=O)NCC(=O)O)[C@@H](C)CC)NC(=O)[C@H](CCCNC(=N)N)NC(=O)[C@H](CCSC)NC(=O)[C@H](CO)NC(=O)[C@H](C)NC(=O)[C@H](CCC(=O)O)NC(=O)[C@H](C)NC(=O)[C@H](Cc2cnc[nH]2)NC(=O)CNC(=O)[C@H](CC(C)C)NC(=O)[C@H](CCC(=O)O)NC(=O)[C@H](CC(=O)O)NC(=O)[C@H](CC(C)C)NC(=O)[C@H](CC(C)C)NC(=O)[C@H](CCCNC(=N)N)NC1=O)[C@@H](C)CC [Compound 132] (Ac-QKIYEICRLLDELGHAEASMRCSDLIYEFMKKG-OH; disulfide 7-22) | – | 5830 nM
CC[C@H](C)[C@H](NC(=O)[C@H](CCCCN)NC(=O)[C@H](CCC(N)=O)NC(C)=O)C(=O)N[C@@H](Cc1ccc(O)cc1)C(=O)N[C@@H](CCC(=O)O)C(=O)N[C@H](C(=O)N[C@H]1CSSC[C@@H](C(=O)N[C@@H](CO)C(=O)N[C@@H](CC(=O)O)C(=O)N[C@@H](CC(C)C)C(=O)N[C@H](C(=O)N[C@@H](Cc2ccc(O)cc2)C(=O)N[C@@H](CCC(=O)O)C(=O)N[C@@H](Cc2ccccc2)C(=O)N[C@@H](CCSC)C(=O)N[C@@H](CCCCN)C(=O)N[C@@H](CCCCN)C(=O)NCC(=O)O)[C@@H](C)CC)NC(=O)[C@H](CCCNC(=N)N)NC(=O)[C@H](CCSC)NC(=O)[C@H](CO)NC(=O)[C@H](C)NC(=O)[C@H](CCC(=O)O)NC(=O)[C@H](C)NC(=O)[C@H](Cc2cnc[nH]2)NC(=O)CNC(=O)[C@H](CC(C)C)NC(=O)[C@H](CCC(=O)O)NC(=O)[C@H](CC(=O)O)NC(=O)[C@H](CC(C)C)NC(=O)[C@H](CC(C)C)NC(=O)[C@H](CCCNC(=N)N)NC1=O)[C@@H](C)CC [Compound 133] (Ac-QKIYEICRLLDELGHAEASMRCSDLIYEFMKKG-OH; disulfide 7-22) | 1530 nM | –
CC[C@H](C)C(N)C(=O)N[C@@H](CC(C)C)C(=O)N[C@@H](CCC(N)=O)C(=O)N[C@@H](CCCCN)C(=O)N[C@H](C(=O)N[C@@H](Cc1ccc(O)cc1)C(=O)N[C@@H](CCC(=O)O)C(=O)N[C@H](C(=O)N[C@H]1CSSC[C@@H](C(=O)N[C@@H](CO)C(=O)N[C@@H](CC(=O)O)C(=O)N[C@@H](CC(C)C)C(=O)N[C@H](C(=O)N[C@@H](Cc2ccc(O)cc2)C(=O)N[C@@H](CCC(=O)O)C(=O)N[C@@H](Cc2ccccc2)C(=O)N[C@@H](CCSC)C(=O)N[C@@H](CCCCN)C(=O)N[C@@H](CCCCN)C(=O)NCC(=O)O)[C@@H](C)CC)NC(=O)[C@H](CCCNC(=N)N)NC(=O)[C@H](CCSC)NC(=O)[C@H](CO)NC(=O)[C@H](C)NC(=O)[C@H](CCC(=O)O)NC(=O)[C@H](C)NC(=O)[C@H](Cc2cnc[nH]2)NC(=O)CNC(=O)[C@H](CC(C)C)NC(=O)[C@H](CCC(=O)O)NC(=O)[C@H](CC(=O)O)NC(=O)[C@H](CC(C)C)NC(=O)[C@H](CC(C)C)NC(=O)[C@H](CCCNC(=N)N)NC1=O)[C@@H](C)CC)[C@@H](C)CC (some centres unmarked) [Compound 134] (H-[ξIle]LQKIYEICRLLDELGHAEASMRCSDLIYEFMKKG-OH; disulfide 9-24) | 12.2 nM | –
CC[C@H](C)[C@H](NC(C)=O)C(=O)N[C@@H](CC(C)C)C(=O)N[C@@H](CCC(N)=O)C(=O)N[C@@H](CCCCN)C(=O)N[C@H](C(=O)N[C@@H](Cc1ccc(O)cc1)C(=O)N[C@@H](CCC(=O)O)C(=O)N[C@H](C(=O)N[C@H]1CSSC[C@@H](C(=O)N[C@@H](CO)C(=O)N[C@@H](CC(=O)O)C(=O)N[C@@H](CC(C)C)C(=O)N[C@H](C(=O)N[C@@H](Cc2ccc(O)cc2)C(=O)N[C@@H](CCC(=O)O)C(=O)N[C@@H](Cc2ccccc2)C(=O)N[C@@H](CCSC)C(=O)N[C@@H](CCCCN)C(=O)N[C@@H](CCCCN)C(=O)NCC(=O)O)[C@@H](C)CC)NC(=O)[C@H](CCCNC(=N)N)NC(=O)[C@H](CCSC)NC(=O)[C@H](CO)NC(=O)[C@H](C)NC(=O)[C@H](CCC(=O)O)NC(=O)[C@H](C)NC(=O)[C@H](Cc2cnc[nH]2)NC(=O)CNC(=O)[C@H](CC(C)C)NC(=O)[C@H](CCC(=O)O)NC(=O)[C@H](CC(=O)O)NC(=O)[C@H](CC(C)C)NC(=O)[C@H](CC(C)C)NC(=O)[C@H](CCCNC(=N)N)NC1=O)[C@@H](C)CC)[C@@H](C)CC [Compound 135] (Ac-ILQKIYEICRLLDELGHAEASMRCSDLIYEFMKKG-OH; disulfide 9-24) | 12.2 nM | –
CC[C@H](C)[C@H](NC(=O)[C@H](CC(C)C)NC(=O)[C@H](CC(=O)O)NC(=O)[C@H](CO)NC(=O)[C@@H]1CSSC[C@H](NC(=O)[C@@H](NC(=O)[C@H](CCC(=O)O)NC(=O)[C@H](Cc2ccc(O)cc2)NC(=O)[C@@H](NC(=O)[C@H](CCCCN)NC(=O)[C@H](CCC(N)=O)NC(=O)[C@H](CC(C)C)NC(=O)[C@@H](NC(=O)[C@H](Cc2c[nH]c3ccccc23)NC(=O)[C@H](CCC(=O)O)NC(=O)[C@H](CCCCN)NC(=O)[C@@H](N)CC(=O)O)[C@@H](C)CC)[C@@H](C)CC)[C@@H](C)CC)C(=O)N[C@@H](CCCNC(=N)N)C(=O)N[C@@H](CC(C)C)C(=O)N[C@@H](CC(C)C)C(=O)N[C@@H](CC(=O)O)C(=O)N[C@@H](CCC(=O)O)C(=O)N[C@@H](CC(C)C)C(=O)NCC(=O)N[C@@H](Cc2cnc[nH]2)C(=O)N[C@@H](C)C(=O)N[C@@H](CCC(=O)O)C(=O)N[C@@H](C)C(=O)N[C@@H](CO)C(=O)N[C@@H](CCSC)C(=O)N[C@@H](CCCNC(=N)N)C(=O)N1)C(=O)N[C@@H](Cc1ccc(O)cc1)C(=O)N[C@@H](CCC(=O)O)C(=O)N[C@@H](Cc1ccccc1)C(=O)N[C@@H](CCSC)C(=O)N[C@@H](CCCCN)C(=O)N[C@@H](CCCCN)C(=O)NCC(=O)O [Compound 136] (H-DKEWILQKIYEICRLLDELGHAEASMRCSDLIYEFMKKG-OH; disulfide 13-28) | 2.53 nM | –
CC[C@H](C)[C@H](NC(=O)[C@H](CC(C)C)NC(=O)[C@H](CC(=O)O)NC(=O)[C@H](CO)NC(=O)[C@@H]1CSSC[C@H](NC(=O)[C@@H](NC(=O)[C@H](CCC(=O)O)NC(=O)[C@H](Cc2ccc(O)cc2)NC(=O)[C@@H](NC(=O)[C@H](CCCCN)NC(=O)[C@H](CCC(N)=O)NC(=O)[C@H](CC(C)C)NC(=O)[C@@H](NC(=O)[C@H](Cc2c[nH]c3ccccc23)NC(=O)[C@H](CCC(=O)O)NC(=O)[C@H](CCCCN)NC(=O)[C@H](CC(=O)O)NC(C)=O)[C@@H](C)CC)[C@@H](C)CC)[C@@H](C)CC)C(=O)N[C@@H](CCCNC(=N)N)C(=O)N[C@@H](CC(C)C)C(=O)N[C@@H](CC(C)C)C(=O)N[C@@H](CC(=O)O)C(=O)N[C@@H](CCC(=O)O)C(=O)N[C@@H](CC(C)C)C(=O)NCC(=O)N[C@@H](Cc2cnc[nH]2)C(=O)N[C@@H](C)C(=O)N[C@@H](CCC(=O)O)C(=O)N[C@@H](C)C(=O)N[C@@H](CO)C(=O)N[C@@H](CCSC)C(=O)N[C@@H](CCCNC(=N)N)C(=O)N1)C(=O)N[C@@H](Cc1ccc(O)cc1)C(=O)N[C@@H](CCC(=O)O)C(=O)N[C@@H](Cc1ccccc1)C(=O)N[C@@H](CCSC)C(=O)N[C@@H](CCCCN)C(=O)N[C@@H](CCCCN)C(=O)NCC(=O)O [Compound 137] (Ac-DKEWILQKIYEICRLLDELGHAEASMRCSDLIYEFMKKG-OH; disulfide 13-28) | 2.91 nM | –
